According to PMC6627993 (International Journal of Molecular Sciences, 2019):
Like-named read-outs stand apart in the source and are kept apart here. One block for each compound: values may come before it.

Legend:
CaOV3 = assay: MTT cell viability assay
Method: (§4) The rate of cell-survival under the action of test substances was evaluated by an improved MTT assay as previously described [20, 31]. […] Incubation was ended after 72 h and cell survival was determined by addition of MTT (Serva, Heidelberg, Germany) solution (5 mg/mL in phosphate buffered saline). The formazan precipitate was dissolved in DMSO (VWR, Langenfeld, Germany). Absorbance was measured at 544 nm and 690 nm in a FLUOstar microplate-reader (BMG LabTech, Offenburg, Germany).

A2780 [1] = assay: MTT cell viability assay
Method: as §4

A2780 [2] = settings: cited from earlier work
HEY [3] = assay: MTT cell viability assay
Method: as §4

Kuramochi = assay: MTT cell viability assay
Method: as §4

OVSAHO [4] = assay: MTT cell viability assay
Method: as §4

A2780 [5] = assay: Synergism study (Chou-Talalay, MTT), 48 h HDACi + 72 h HDACi and cisplatin; format: cell-based, human
Method: (§1) Concentrations were chosen to achieve a fraction affected (fa; level of cell viability inhibition) between 0.2 and 0.9 in the Chou-Talalay-analysis.
(§2) After 72 h, the cytotoxic effect was determined with a MTT cell viability assay. Calcusyn software 2.1 (Biosoft, Cambridge, UK) was used to calculate the combination index (CI) as a quantitative measure of the degree of drug interaction.

OVSAHO [6] = assay: as above; format: cell-based, human
Method: as §1, §2

HEY [7] = assay: as above; format: cell-based, human
Method: as §1, §2

HEY [8] = assay: Measurement of apoptotic nuclei (subG1, flow cytometry); format: cell-based, human; settings: HDACi 48 h, then cisplatin IC50 24 h
Method: Next, we investigated if the observed synergistic cytotoxic effect was mediated via apoptosis-induction. […] Then, cells were subjected to flow-cytometry-based subG1 analysis.
A2780, CaOV3, HEY, Kuramochi, and OVSAHO cells were seeded at a density of 40,000 c/w, 50,000 c/w, 40,000 c/w, 60,000 c/w, and 100,000 c/w in 24-well plates (Sarstedt, Nürnbrecht, Germany). Cells were treated with entinostat, panobinostat, or nexturastat A and cisplatin alone or in combination for the indicated time points. Supernatant was removed after a centrifugation step and the cells were lysed in 500 µL hypotonic lysis buffer (0.1% sodium citrate, 0.1% Triton X-100, 100 µg/mL PI) at 4 °C in the dark overnight. The percentage of apoptotic nuclei with DNA content in sub-G1 was analyzed by flow cytometry using the CyFlow instrument (Partec, Norderstedt, Germany).

[9] = tested on: A2780, CaOV3, HEY, Kuramochi, OVSAHO; assay: Synergism study (Chou-Talalay, MTT), all cell lines; format: cell-based, human; settings: 48 h + 72 h; CI < 0.9 indicates synergism
Method: as §1, §2

HDAC in OVSAHO cells = assay: Whole-cell HDAC inhibition assay; format: cell-based, human; settings: 18 h incubation
Method: (§3) The cellular HDAC assay was based on an assay published by Heltweg and Jung, Ciossek et al., and Bonfils et al. with minor modifications as described in [20]. Briefly, human cancer cell lines A2780, CaOV3, HEY, Kuramochi, and OVSAHO were seeded in 96-well tissue culture plates (Corning, Kaiserslautern, Germany) at a density of 15,000 c/w, 15,000 c/w, 17,500 c/w, 22,500 c/w, and 50,000 c/w in a total volume of 90 µL of culture medium. After 24 h, cells were incubated for 18 h with increasing concentrations of test compounds. The reaction was started by adding 10 µL of 3 mM Boc-Lys(Ac)-AMC (Bachem, Bubendorf, Switzerland) to reach final concentration of 0.3 mM [61]. The cells were incubated with the Boc-Lys(Ac)-AMC for 3 h under cell culture conditions. […] Fluorescence intensity was measured at excitation of 320 nm and emission of […] in a NOVOstar microplate reader (BMG LabTech, Offenburg, Germany).

HDAC in CaOV3 cells = assay: Whole-cell HDAC inhibition assay; format: cell-based, human; settings: 18 h incubation
Method: as §3

HDAC in A2780 cells = assay: Whole-cell HDAC inhibition assay; format: cell-based, human; settings: 18 h incubation
Method: as §3

HDAC in Kuramochi cells = assay: Whole-cell HDAC inhibition assay; format: cell-based, human; settings: 18 h incubation
Method: as §3

HDAC in HEY cells = assay: Whole-cell HDAC inhibition assay; format: cell-based, human; settings: 18 h incubation
Method: as §3

[10] = read-out: IC50 of cisplatin, cisplatin alone, 72 h
[11] = cisplatin 1.00 µM + panobinostat 40 nM
[12] = cisplatin 2.00 µM + panobinostat 40 nM
[13] = cisplatin 4.00 µM + panobinostat 40 nM
[14] = read-out: IC50 (HDAC inhibitory activity)

SMILES: N.N.[Cl][Pt][Cl] [Cisplatin, cis-diamminedichloridoplatinum(II)]
IC50 (CaOV3; 72 h incubation): 1.44 µM
pIC50 ± SEM (CaOV3; 72 h incubation): 5.84 ± 0.01
IC50 (CaOV3; [10]): 1.44 µM
IC50 (A2780 [1]; 72 h incubation): 11 µM
pIC50 ± SEM (A2780 [1]; 72 h incubation): 4.96 ± 0.01
IC50 (A2780 [1]; [10]): 11 µM
IC50-values for cisplatin in previous studies (A2780 [2]): one-digit micromolar range
IC50 (HEY [3]; 72 h incubation): 5.25 µM
pIC50 ± SEM (HEY [3]; 72 h incubation): 5.28 ± 0.01
IC50 (HEY [3]; [10]): 5.25 µM
IC50 (Kuramochi; 72 h incubation): 4.68 µM
pIC50 ± SEM (Kuramochi; 72 h incubation): 5.33 ± 0.02
IC50 (Kuramochi; [10]): 4.68 µM
IC50 (OVSAHO [4]; 72 h incubation): 4.83 µM
pIC50 ± SEM (OVSAHO [4]; 72 h incubation): 5.32 ± 0.01
IC50 (OVSAHO [4]; [10]): 4.83 µM

pIC50 ± SEM (HDAC inhibitory activity) (HDAC in OVSAHO cells): 7.64 ± 0.04
IC50 (HDAC in OVSAHO cells; [14]): 0.0231 µM
pIC50 ± SEM (HDAC inhibitory activity) (HDAC in CaOV3 cells): 8.10 ± 0.05
IC50 (HDAC in CaOV3 cells; [14]): 0.00788 µM
pIC50 ± SEM (HDAC inhibitory activity) (HDAC in A2780 cells): 7.91 ± 0.06
IC50 (HDAC in A2780 cells; [14]): 0.0121 µM
pIC50 ± SEM (HDAC inhibitory activity) (HDAC in Kuramochi cells): 8.01 ± 0.07
IC50 (HDAC in Kuramochi cells; [14]): 0.00987 µM
pIC50 ± SEM (HDAC inhibitory activity) (HDAC in HEY cells): 7.87 ± 0.03
IC50 (HDAC in HEY cells; [14]): 0.0136 µM
SMILES: Cc1[nH]c2ccccc2c1CCNCc1ccc(/C=C/C(=O)NO)cc1 [Panobinostat, panobinostat]
combination index (CI) (A2780 [5]; cisplatin 0.50 µM + panobinostat 10 nM): 0.21
combination index (CI) (A2780 [5]; cisplatin 0.50 µM + panobinostat 20 nM): 0.10
combination index (CI) (A2780 [5]; cisplatin 0.50 µM + panobinostat 30 nM): 0.15
combination index (CI) (A2780 [5]; cisplatin 0.50 µM + panobinostat 40 nM): 0.15
combination index (CI) (A2780 [5]; cisplatin 1.00 µM + panobinostat 10 nM): 0.25
combination index (CI) (A2780 [5]; cisplatin 1.00 µM + panobinostat 20 nM): 0.12
combination index (CI) (A2780 [5]; cisplatin 1.00 µM + panobinostat 30 nM): 0.17
combination index (CI) (A2780 [5]; [11]): 0.18
combination index (CI) (A2780 [5]; cisplatin 2.00 µM + panobinostat 10 nM): 0.35
combination index (CI) (A2780 [5]; cisplatin 2.00 µM + panobinostat 20 nM): 0.16
combination index (CI) (A2780 [5]; cisplatin 2.00 µM + panobinostat 30 nM): 0.22
combination index (CI) (A2780 [5]; [12]): 0.21
combination index (CI) (A2780 [5]; cisplatin 4.00 µM + panobinostat 10 nM): 0.35
combination index (CI) (A2780 [5]; cisplatin 4.00 µM + panobinostat 20 nM): 0.21
combination index (CI) (A2780 [5]; cisplatin 4.00 µM + panobinostat 30 nM): 0.27
combination index (CI) (A2780 [5]; [13]): 0.25
combination index (CI) (A2780 [5]; cisplatin 6.00 µM + panobinostat 10 nM): 0.29
combination index (CI) (A2780 [5]; cisplatin 6.00 µM + panobinostat 20 nM): 0.23
combination index (CI) (A2780 [5]; cisplatin 6.00 µM + panobinostat 30 nM): 0.26
combination index (CI) (A2780 [5]; cisplatin 6.00 µM + panobinostat 40 nM): 0.26
combination index (CI) (OVSAHO [6]; [11]): 0.36
combination index (CI) (OVSAHO [6]; cisplatin 1.00 µM + panobinostat 50 nM): 0.33
combination index (CI) (OVSAHO [6]; cisplatin 1.00 µM + panobinostat 60 nM): 0.27
combination index (CI) (OVSAHO [6]; cisplatin 1.00 µM + panobinostat 70 nM): 0.26
combination index (CI) (OVSAHO [6]; [12]): 0.25
combination index (CI) (OVSAHO [6]; cisplatin 2.00 µM + panobinostat 50 nM): 0.23
combination index (CI) (OVSAHO [6]; cisplatin 2.00 µM + panobinostat 60 nM): 0.21
combination index (CI) (OVSAHO [6]; cisplatin 2.00 µM + panobinostat 70 nM): 0.21
combination index (CI) (OVSAHO [6]; cisplatin 3.00 µM + panobinostat 40 nM): 0.24
combination index (CI) (OVSAHO [6]; cisplatin 3.00 µM + panobinostat 50 nM): 0.22
combination index (CI) (OVSAHO [6]; cisplatin 3.00 µM + panobinostat 60 nM): 0.21
combination index (CI) (OVSAHO [6]; cisplatin 3.00 µM + panobinostat 70 nM): 0.21
combination index (CI) (OVSAHO [6]; [13]): 0.23
combination index (CI) (OVSAHO [6]; cisplatin 4.00 µM + panobinostat 50 nM): 0.22
combination index (CI) (OVSAHO [6]; cisplatin 4.00 µM + panobinostat 60 nM): 0.21
combination index (CI) (OVSAHO [6]; cisplatin 4.00 µM + panobinostat 70 nM): 0.21
combination index (CI) (OVSAHO [6]; cisplatin 5.00 µM + panobinostat 40 nM): 0.24
combination index (CI) (OVSAHO [6]; cisplatin 5.00 µM + panobinostat 50 nM): 0.23
combination index (CI) (OVSAHO [6]; cisplatin 5.00 µM + panobinostat 60 nM): 0.22
combination index (CI) (OVSAHO [6]; cisplatin 5.00 µM + panobinostat 70 nM): 0.22
combination index (CI) (HEY [7]; cisplatin 0.32 µM + panobinostat 5.0 nM): * (* means fraction affected is less than 0.20)
combination index (CI) (HEY [7]; cisplatin 0.32 µM + panobinostat 10.0 nM): * (* means fraction affected is less than 0.20)
combination index (CI) (HEY [7]; cisplatin 0.32 µM + panobinostat 20.0 nM): 0.14
combination index (CI) (HEY [7]; cisplatin 0.32 µM + panobinostat […]): 0.19
combination index (CI) (HEY [7]; cisplatin 0.50 µM + panobinostat 5.0 nM): * (* means fraction affected is less than 0.20)
combination index (CI) (HEY [7]; cisplatin 0.50 µM + panobinostat 10.0 nM): * (* means fraction affected is less than 0.20)
combination index (CI) (HEY [7]; cisplatin 0.50 µM + panobinostat 20.0 nM): 0.15
combination index (CI) (HEY [7]; cisplatin 0.50 µM + panobinostat […]): 0.21
combination index (CI) (HEY [7]; cisplatin 1.00 µM + panobinostat 5.0 nM): * (* means fraction affected is less than 0.20)
combination index (CI) (HEY [7]; cisplatin 1.00 µM + panobinostat 10.0 nM): * (* means fraction affected is less than 0.20)
combination index (CI) (HEY [7]; cisplatin 1.00 µM + panobinostat 20.0 nM): 0.16
combination index (CI) (HEY [7]; cisplatin 1.00 µM + panobinostat […]): 0.25
combination index (CI) (HEY [7]; cisplatin 2.00 µM + panobinostat 5.0 nM): * (* means fraction affected is less than 0.20)
combination index (CI) (HEY [7]; cisplatin 2.00 µM + panobinostat 10.0 nM): 0.41
combination index (CI) (HEY [7]; cisplatin 2.00 µM + panobinostat 20.0 nM): 0.17
combination index (CI) (HEY [7]; cisplatin 2.00 µM + panobinostat […]): 0.25
combination index (CI) (HEY [7]; cisplatin 4.00 µM + panobinostat 5.0 nM): 0.51
combination index (CI) (HEY [7]; cisplatin 4.00 µM + panobinostat 10.0 nM): 0.33
combination index (CI) (HEY [7]; cisplatin 4.00 µM + panobinostat 20.0 nM): 0.20
combination index (CI) (HEY [7]; cisplatin 4.00 µM + panobinostat […]): 0.28
apoptosis induction, combination with cisplatin versus cisplatin or HDACi alone (HEY [8]): no difference in apoptosis induction
CI-values (interaction with cisplatin) [9]: lower than 0.9
